Reference: patent US8999661B2, “Compositions for detecting cell death and methods of use thereof” (Dana-Farber Cancer Institute, Inc., priority 2008, dated 2015)

Tests used:
[1] = tested on: Ku812-Luc+ (BCR-ABL+CML blast crisis) cells; assay: In vivo imaging of chemotherapy-induced apoptosis (AMN107); parameters: species or system mice; conditions: 100 mg/kg IP; day 5
Protocol: Subcutaneous tumors were established using Ku812-Luc+ (BCR-ABL+CML blast crisis) cells in NCr nude mice. When tumors were ˜1 cm, mice underwent bioluminescence imaging (BLI) to determine baseline tumor burden, followed by treatment with either AMN107 (nilotinib) at 100 mg/kg intraperitoneally (IP), or with vehicle. After 3 doses, animals were injected with 20 μg of LDH-Alexa750. Fluorescence imaging (FL) was performed 24 and 48 hrs after probe injection (day 4 and 5 of treatment) and BLI was repeated on day 5 of treatment (FIG. 9A).

[2] = tested on: HeLa cells; assay: FACS staining of camptothecin-treated apoptotic HeLa cells; format: cell-based; conditions: for percent apoptotic cells as measured with the probe: camptothecin; for cell staining over time (FACS): 12 h, 24 h, annexin binding buffer; for uptake by apoptotic HeLa cells (FACS) / uptake by control untreated HeLa cells (FACS): FIG. 6
Protocol: HeLa cells (5×10^5 in 10 cm plates) maintained in DMEM with 10% FBS were contacted with 5 μM camptothecin to induce apoptosis. Cell staining by FITC-labeled Annexin V (Abcam, Cambridge, Mass.) or Cy5.5-labeled chicken LDH (1 μL) prepared as described in Example 1, was measured by fluorescence-activated cell sorting (FACS) analysis (with cells in annexin binding buffer (Abcam)) 12 h, 24 h, and 48 h later. Untreated HeLa cells served as negative controls.
Staining by Annexin V is known to require the presence of calcium. […] HeLa cells treated with camptothecin to induce apoptosis as in Example 9 were stained with FITC-labeled Annexin V (Abcam, Cambridge, Mass.) or Cy5.5-labeled chicken LDH in calcium-containing Annexin buffer or in calcium-free PBS. Stained cells were analyzed by FACS analysis as in Example 9.
HeLa cells (5×10^5 in 10 cm plates) maintained in DMEM with 10% FBS were contacted with 5 μM camptothecin to induce apoptosis. Cell staining was done in the media: (i) annexin buffer, (ii) DMEM supplemented with 1% FBS; (iii) DMEM supplemented with 2% FBS; (iii) DMEM supplemented with 5% FBS; (iv) DMEM supplemented with 10% FBS. For cell staining FITC-labeled Annexin V (Abcam, Cambridge, Mass.) or Cy5.5-labeled chicken LDH (1 μL) prepared as described in Example 1, was used to for FACS analysis (cells in annexin binding buffer (Abcam)) 48 h later. Untreated HeLa cells served as negative controls. […]

[3] = tested on: apoptotic cells; assay: Homogeneous multiwell apoptosis assay in normal growth medium; format: cell-based; conditions: e.g., RPMI with 10% FBS, flow cytometry or High-Content Microscopy
[4] = tested on: apoptotic cells; assay: Staining requirements (temperature, calcium) of cLDHB and Annexin V; format: cell-based
Protocol: To determine if cLDHB is actively transported into cells, staining was performed at room temperature and at 4° C.
A major limitation of Annexin V staining is the requirement for supra-physiological concentrations of calcium (Tait, J. F., D. F. Gibson, and C. Smith, Anal Biochem, 2004. 329: 112-9). To determine whether cLDHB staining required calcium, Annexin V and cLDHB staining was performed in PBS (without calcium or magnesium) or in Annexin Binding Buffer (with 2.5 mM calcium).

[5] = tested on: HeLa cells; assay: Confocal microscopy of stained apoptotic HeLa cells; format: cell-based
[6] = tested on: RS4;11 cells; assay: FACS staining of RS4;11 cells treated with NVP-LAQ824; format: cell-based; conditions: RS4;11, 50 nM NVP-LAQ824, 24 h
Protocol: RS4;11 is a MLL-AF4 fusion transcript-positive t(4;11) pre-B ALL cell line that is highly resistant to chemotherapy and radiation. In this experiment RS4;11 cells (1×10^6) were treated with 50 nM NVP-LAQ824 (Novartis Pharma, Basel, Switzerland) for 24 h and then contacted with FITC-labeled Annexin V (Abcam, Cambridge, Mass.) or Cy5.5-labeled chicken LDH and analyzed by FACS as in Example 9. NVP-LAQ824 is a potent hydroxamic acid-derived histone deacetylase inhibitor that induces apoptosis in nanomolar concentrations in myeloid leukemia cell lines, multiple myeloma, and patient samples. Catley L et al. (2003) Blood 102:2615-22.
In a related experiment, RS4;11 cells were treated with 50 nM NVP-LAQ824 in culture media for 24 h and then stained with FITC-labeled Annexin V or A680-labeled human LDH-B in either Annexin buffer or culture media. Apoptosis was measured by FACS analysis. Results indicated a significant difference between 11-12 percent apoptotic cells as measured with FITC-labeled Annexin V in Annexin buffer versus only 4 percent apoptotic cells as measured with FITC-labeled Annexin V in culture media. In contrast, results indicated 11-12 percent apoptotic cells as measured with A680-labeled LDH-B, whether in Annexin buffer or culture media.

[7] = tested on: THP-1 cells; assay: Competition for Annexin V and LDHB binding to apoptotic THP-1 cells; format: cell-based; conditions: probe 0.1 μM; for staining of apoptotic cells in the presence of excess unlabeled Annexin V: 5- and 10-fold excess
Protocol: To determine whether physiological levels of LDH may preclude binding of a LDH probe, the ability of excess unlabeled cLDHB and Annexin V to compete for binding of apoptotic cells by FITC conjugated Annexin V and cLDHB was assessed.
Apoptosis was induced in THP-1 cells with LAQ824 (50 nM, 18 hrs), and cells were stained with either Annexin V-FITC or cLDHB-FITC at a final concentration of 0.1 μM. For competition, staining was performed in the presence of excess unlabeled LDHB or Annexin V.

[8] = tested on: THP-1 cells; assay: Staining of THP-1 cells treated with HDAC inhibitor LAQ824; format: cell-based; conditions: THP-1, LAQ824 50 nM, 18 hrs
Protocol: To correlate cLDHB staining with other measures of apoptosis, a fluorescent probe that binds to activated caspases (pan-caspase-FLICA, Immunochemistry Tech) was used. THP-1 cells were treated with the HDAC inhibitor LAQ824 (50 nM, 18 hrs) to induce apoptosis.
Similarly, we asked whether the […] proteins performed comparably to purified recombinant LDH.

[9] = tested on: hepatocyte apoptosis; assay: In vivo NIR imaging of fulminant hepatic failure (anti-Fas antibody); parameters: species or system mice; conditions: liver region; 10 μg probe; 25 hrs after probe injection
Protocol: This model was used to compare LDH to Annexin V for near infrared (NIR) imaging of apoptosis. Alexa750-NHS was conjugated to Annexin V (Biovision) and chicken LDHB (XpressBio) at a labeling ratio of 2:1 per mole of protein based on prior optimization. A total of 10 male NCr nude mice were injected with 5 μg of anti-Fas antibody (Jo2, Pharmingen), and 10 animals were injected with 5 μg of an isotype-matched control antibody. Two hours later, mice were injected with 10 μg of either LDH-Alexa750 or Annexin V-Alexa750. Mice underwent NIR fluorescence imaging (IVIS Spectrum, Caliper) 25 hrs after probe injection (FIG. 8A). After spectral unmixing and background subtraction (Living Images software package), regions of interest were used to quantify fluorescence localized to the liver region (FIG. 8A), as indicated with arrowheads.

[10] = calcium-containing Annexin V buffer

## Cc1cn(-c2cc(NC(=O)c3ccc(C)c(Nc4nccc(-c5cccnc5)n4)c3)cc(C(F)(F)F)c2)cn1 [AMN107, nilotinib]
[1]
  difference between treated animals and vehicle-treated controls by BLI: 2 log
  tumor response by BLI: tumor regression

## Annexin V: fluorescently labeled Annexin V probe used as comparator; FITC-labeled in Example 12 [reference compound]
[2]; FBS 10 percent, HeLa, 48 h
  percent apoptotic cells as measured with the probe: about 15%
[2]; FBS zero, HeLa, 48 h
  percent apoptotic cells as measured with the probe: about 50%
[2]; HeLa treated with camptothecin
  change of staining with increasing amounts of FBS (FACS): significantly decreased
[3]
  staining / quantification of apoptosis with probe added directly to normal growth medium: No Annexin V staining
[4]
  staining in PBS (without calcium or magnesium) compared to Annexin Binding Buffer (2.5 mM calcium): significantly decreased

## Cy5.5-labeled Annexin V: Cy5.5-labeled Annexin V (Abcam) [reference compound]
[5]
  staining pattern (confocal microscopy): membranous

## Cy5.5-labeled chicken LDH: chicken lactate dehydrogenase (LDH-B) labeled with Cy5.5 N-hydroxysuccinimide ester as described in Example 1
[2]; HeLa, 5 μM camptothecin
  proportion of apoptotic cells detected compared to FITC-labeled Annexin V: comparable
[2]; HeLa, 5 μM camptothecin, 48 h
  cell staining over time (FACS): progressively stained positive
[2]; [10]
  staining of apoptotic cells (FACS): strongly and equally positive
[2]; calcium-free PBS
  staining of apoptotic cells (FACS): strongly and equally positive
[2]; over the range FBS zero to 10 percent, HeLa, 48 h
  percent apoptotic cells as measured with the probe: about 65%
[5]
  staining pattern (confocal microscopy): punctate cytoplasmic
[6]
  apoptosis over background levels as measured with the probe: only a mild increase
  staining compared to FITC-Annexin V: comparable

## FITC-labeled Annexin V: FITC-labeled Annexin V (Abcam), phosphatidylserine-binding apoptosis probe [reference compound]
[7]
  staining of apoptotic cells in the presence of excess unlabeled Annexin V: abrogated
[2]; HeLa, 5 μM camptothecin, 48 h
  cell staining over time (FACS): progressively stained positive
[2]; [10]
  staining of apoptotic cells (FACS): strongly positive
[2]; calcium-free PBS
  staining of apoptotic cells (FACS): essentially not at all
[5]
  staining pattern (confocal microscopy): membranous
[6]
  apoptosis over background levels as measured with the probe: only a mild increase
[6]; staining in culture media
  apoptotic cells as measured with the probe: 4%

## FITC-labeled chicken LDH: chicken LDH-B labeled with fluorescein isothiocyanate
[7]
  staining of apoptotic cells in the presence of excess unlabeled Annexin V: no effect
[7]; up to 100-(10 μM) and 350-fold (35 μM) excess
  staining of apoptotic cells in the presence of excess unlabeled LDHB: only marginally altered
[5]
  staining pattern (confocal microscopy): punctate cytoplasmic

## LDHB: LDHB not fused to GST, served as a positive control
[2]; HeLa, 5 μM camptothecin, 48 h, FIG. 5
  uptake by / staining of apoptotic cells (FACS): stained apoptotic cells

## cLDHB-A680: chicken LDHB labeled with A680 (Alexa 680)
[8]
  coincidence of staining with caspase activation (pan-caspase-FLICA): entirely coincident

B1: Annexin V-Alexa750: Annexin V (Biovision) conjugated to Alexa750-NHS at a labeling ratio of 2:1 (conjugate, UniProt P08758 2-320, looked up)
Annexin A5: AQVLRGTVTDFPGFDERADAETLRKAMKGLGTDEESILTLLTSRSNAQRQEISAAFKTLFGRDLLDDLKSELTGKFEKLIVALMKPSRLYDAYELKHALKGAGTNEKVLTEIIASRTPEELRAIKQVYEEEYGSSLEDDVVGDTSGYYQRMLVVLLQANRDPDAGIDEAQVEQDAQALFQAGELKWGTDEEKFITIFGTRSVSHLRKVFDKYMTISGFQIEETIDRETSGNLEQLLLAVVKSIRSIPAYLAETLYYAMKGAGTDDHTLIRVMVSRSEIDLFNIRKEFRKNFATSLYSMIKGDTSGDYKKALLLLCGEDD
modifications: Alexa Fluor 750 label
[9]
  mean signal intensity (photons/sec/ROI) of anti-Fas antibody treated animals above IgG control antibody treated animals: 1.8 fold

B2: labeled ADH: Cy5.5-labeled yeast alcohol dehydrogenase (Alexa 680-labeled per FIG. 6 legend) (conjugate, UniProt P00330 2-348, looked up)
Alcohol dehydrogenase 1: SIPETQKGVIFYESHGKLEYKDIPVPKPKANELLINVKYSGVCHTDLHAWHGDWPLPVKLPLVGGHEGAGVVVGMGENVKGWKIGDYAGIKWLNGSCMACEYCELGNESNCPHADLSGYTHDGSFQQYATADAVQAAHIPQGTDLAQVAPILCAGITVYKALKSANLMAGHWVAISGAAGGLGSLAVQYAKAMGYRVLGIDGGEGKEELFRSIGGEVFIDFTKEKDIVGAVLKATDGGAHGVINVSVSEAAIEASTRYVRANGTTVLVGMPAGAKCCSDVFNQVVKSISIVGSYVGNRADTREALDFFARGLVKSPIKVVGLSTLPEIYEKMEKGQIVGRYVVDTSK
modifications: Cy5.5 or Alexa 680 label
[2]; 5 μM camptothecin
  uptake by apoptotic HeLa cells (FACS): taken up
[2]
  uptake by control untreated HeLa cells (FACS): not by control untreated HeLa cells

B3: labeled MDH: Cy5.5-labeled E. coli malate dehydrogenase (Alexa 680-labeled per FIG. 6 legend) (conjugate, UniProt P61889 1-312, looked up)
Malate dehydrogenase: MKVAVLGAAGGIGQALALLLKTQLPSGSELSLYDIAPVTPGVAVDLSHIPTAVKIKGFSGEDATPALEGADVVLISAGVARKPGMDRSDLFNVNAGIVKNLVQQVAKTCPKACIGIITNPVNTTVAIAAEVLKKAGVYDKNKLFGVTTLDIIRSNTFVAELKGKQPGEVEVPVIGGHSGVTILPLLSQVPGVSFTEQEVADLTKRIQNAGTEVVEAKAGGGSATLSMGQAAARFGLSLVRALQGEQGVVECAYVEGDGQYARFFSQPLLLGKNGVEERKSIGTLSAFEQNALEGMLDTLKKDIALGEEFVNK
modifications: Cy5.5 or Alexa 680 label
[2]; 5 μM camptothecin
  uptake by apoptotic HeLa cells (FACS): taken up
[2]
  uptake by control untreated HeLa cells (FACS): not by control untreated HeLa cells
